Laboratory results as given in US9707200B2, “Metabolism-improving agent comprising rare fatty acid” (KYOTO UNIVERSITY, priority 2012, dated 2017).

Legend:
[1] = system: KKAy mouse; test: Effect in obesity or diabetes model mouse fed high-fat diet with added fatty acid; format: in vivo; conditions: for body weight: 4 weeks; for body weight / blood glucose level: vs control group
Experimental: (1) Using KKAy mouse as obesity or diabetes model mouse, the effect of KetoA, HYA was evaluated. KKAy mice (KKAy/TaJcl, male, 4-week-old, purchased from CLEA Japan, Inc. and individually bred) were preliminarily bred on a commercially available normal diet (ND) for 1 week, divided into 5 groups, and each group was bred on a high-fat diet (HFD) as a basic feed and given a non-addition feed (control group), or a feed added with different amounts of KetoA and HYA for 4 weeks. The KetoA, HYA-added feed was prepared by adding KetoA, HYA to HFD such that the amount to be added was 0.05% (w/w) (0.05% group) or 0.1% (w/w) (0.1% group).
(2) The profile of the body weight and blood glucose level of the KKAy mouse was measured. After the start of the test feed breeding, the oxygen consumption level was measured on day 16-19, an oral glucose loading test was performed on day 24, and the rectal temperature was measured on day 26. The next day of the completion of experimental breeding, the KKAy mouse was dissected, and the organ weight and plasma neutral fat level were measured.

[2] = system: HepG2 cells; test: Effect on LXR agonist-induced expression of fatty acid synthesis genes, real-time PCR; format: cell-based, human; conditions: 10 nM T0901317 + 60 μM fatty acid, 24 hr
Experimental: Using human liver cancer-derived HepG2 cells (cell No.; JCRB1054, the Health Science Research Resources Bank), a suppressive effect on fatty acid synthesis promotion induced by LXR agonist was evaluated by reference to the method of Zaima et al. (Journal of Lipid Research 47, 2712-2717, 2006).
(§1) HepG2 cells (2.0×10^5 cells/mL) were cultured in DMEM medium containing 10% FES for 24 hr, and the medium was exchanged with 0.1% BSA-containing DMEM medium containing 10 nM LXR agonist T0901317 (Cayman Chemicals) and 60 μM various fatty acid. After culture for 24 hr, the cells were recovered, and total RNA was extracted using Sepasol reagent (Nacalai Tesque). After DNase treatment, reverse transcription was performed using SuperScriptII (Invitrogen) to give a cDNA solution. Using SYBR Green Mix (Bio-Rad, Richmond, Calif.) and gene-specific primer (Table 1), real-time PCR was performed as follows.
(§2) 1. Reaction at 96° C., 15 min, 2. reaction at 96° C., 15 sec, 3. reaction at 60° C. for 30 sec, 4. measurement of fluorescence, 5. 2-4 were repeated 40 times, 6. the melting curve was measured from 65° C. to 95° C. at 0.4° C. intervals. As the internal standard, 18S rRNA was used. The genes involved in the fatty acid synthesis as measured were Sterol regulatory element binding protein-1c (SREBP-1c), Stearoyl coenzyme A desaturase-1 (SCD-1), Fatty acid synthase (FAS), and Acetyl CoA carboxylase-1 and -2 (ACC-1, 2). As for the amount of accumulated intracellular TG, the lipid was extracted with chloroform-methanol, and quantified by triglyceride-′E Test Wako (Wako Pure Chemical Industries, Ltd.).

[3] = system: HepG2 cells; test: Immature and mature SREBP-1 protein expression induced by LXR agonist, Western blot; format: cell-based, human; conditions: 10 nM T0901317 + 60 μM fatty acid, 24 hr; for immature SREBP-1 expression induced by LXR agonist: membrane fraction; for mature SREBP-1 expression induced by LXR agonist: nuclear fraction
Experimental: as §1
(§3) In addition, the protein expression level of immature and mature SREBP-1c was measured. Cells treated as mentioned above were dispersed in buffer A (250 mM sucrose, 10 mM HEPES-KOH, 10 mM KCl, 1.5 mM MgCl2, 1 mM EDTA-Na, 1 mM EGTA-Na, pH 7.6) containing a protease inhibitor, passed 20 times through a 23 gauge injection needle, and centrifuged (1,000×g, 4° C., 5 min) to separate into supernatant 1 and precipitate 1. The precipitate 1 was re-dissolved in buffer B (20 mM HEPES-KOH, 0.42 M NaCl, 2.5% glycerol, 1.5 mM MgCl2, 1 mM EDTA-Na, 1 mM EGTA-Na, pH 7.6), and centrifuged (10^5×g, 4° C., 15 min). The obtained supernatant 2 was used as a nuclear fraction (including mature form). The supernatant 1 was further centrifuged (10^5×g, 4° C., 15 min), and the obtained precipitate 2 was dissolved in cell lysate (10 mM Tris-HCl, 100 mM NaCl, 1% SDS, 1 mM EDTA-Na, 1 mM EGTA-Na) and used as a membrane fraction (including immature form). Using these as samples, measurement was performed by Western blot method using anti-SREBP-1 polyclonal antibody (Santa Cruz). Using Dual luciferase system (Promega), antagonizing action on LXR was evaluated by luciferase assay. p3xIR1-tk-Luc, pCMX-hLXRa, pRL-CMX were introduced into HepG2 cell. After culture in a 0.1% BSA-containing serum-free medium containing various fatty acids and T0901317 for 24 hr, the luciferase activity was measured.

[4] = system: HepG2 cells; test: Intracellular triacylglycerol accumulation by LXR agonist; format: cell-based, human; conditions: 10 nM T0901317 + 60 μM fatty acid, 24 hr
Experimental: as §1, §2

[5] = target: T1, LXR (Homo sapiens, UniProt Q13133); test: Antagonizing action on LXR by luciferase assay; format: cell-based; conditions: for antagonizing action on LXR (relative luciferase activity): HepG2 cells, fatty acid + T0901317, 24 hr; for lipid synthesis suppressive action by the antagonizing action on LXR: overall finding from SREBP-1c, SREBP-1, SCD-1, FAS, ACC1, 2, triacylglycerol and LXR luciferase measurements in HepG2 cells
T1 construct: expressed in transfected cells; host or cells: HepG2 (human liver cancer-derived)
T1 sequence (Q13133 1-447): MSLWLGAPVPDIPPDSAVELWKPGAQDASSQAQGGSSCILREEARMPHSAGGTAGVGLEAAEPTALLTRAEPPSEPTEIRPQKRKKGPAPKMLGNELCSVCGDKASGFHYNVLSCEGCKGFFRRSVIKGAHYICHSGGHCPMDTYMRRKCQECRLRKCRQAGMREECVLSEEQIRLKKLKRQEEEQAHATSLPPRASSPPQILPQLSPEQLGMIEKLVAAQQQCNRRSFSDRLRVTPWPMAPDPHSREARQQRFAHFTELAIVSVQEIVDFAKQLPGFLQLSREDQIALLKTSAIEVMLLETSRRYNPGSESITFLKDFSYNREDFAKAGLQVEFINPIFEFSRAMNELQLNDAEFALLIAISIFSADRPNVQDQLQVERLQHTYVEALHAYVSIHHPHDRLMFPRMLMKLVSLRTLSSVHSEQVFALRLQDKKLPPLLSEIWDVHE
Experimental: as §3

Row | SMILES | body weight ([1]; HFD with 0.05% (w/w) added) | blood glucose level ([1]; added-feed group, amount not specified) | ACC1 mRNA expression induced by LXR agonist [2] | ACC2 mRNA expression induced by LXR agonist [2] | FAS mRNA expression induced by LXR agonist [2] | SCD-1 mRNA expression induced by LXR agonist [2] | suppression of SREBP-1c mRNA expression induced by LXR agonist [2] | immature SREBP-1 expression induced by LXR agonist [3] | mature SREBP-1 expression induced by LXR agonist [3] | suppression of intracellular triacylglycerol increase by LXR agonist [4] | antagonizing action on LXR (relative luciferase activity) [5] | lipid synthesis suppressive action by the antagonizing action on LXR [5] | blood glucose level ([1]; 0.05% group, at 4 weeks of test diet) | intraperitoneal white fat weight ([1]; 0.1% group, after 4 weeks) | plasma neutral fat level ([1]; 0.1% group, after 4 weeks) | blood glucose level ([1]; 0.1% group, at 4 weeks of test diet) | body weight ([1]; HFD with 0.1% (w/w) added) | oxygen consumption level ([1]; day 16-19, added-feed group vs control group) | rectal temperature ([1]; day 26, added-feed group vs control group)
1 | CCCCC/C=C\CC(O)CCCCCCCCC(=O)O (stereo not drawn) [HYA, 10-hydroxy-cis-12-octadecenoic acid] | significant suppression of body weight increase | tendency toward suppression of blood glucose level increase | down regulation | down regulation | down regulation | down regulation | strong suppressive action | strongly suppressed | strongly suppressed | significantly suppressed | significantly suppress the action of T0901317 | strong lipid synthesis suppressive action |  |  |  |  |  |  | 
2 | CCCCC/C=C\CC(=O)CCCCCCCCC(=O)O [KetoA, 10-oxo-cis-12-octadecenoic acid] | body weight increase suppression tendency |  | down regulation | down regulation | down regulation | down regulation | strong suppressive action | strongly suppressed | strongly suppressed | significantly suppressed | significantly suppress the action of T0901317 | strong lipid synthesis suppressive action | tendency toward suppression of blood glucose increase | significant decrease | significant decrease | stronger, significant hypoglycemic action | significant suppression of body weight increase | increase in the oxygen consumption level | increase in the rectal temperature
